Measurements taken from ChEMBL document CHEMBL1201862, “PubChem BioAssay data set” (2004).
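Method: 48-hour compound exposure of cells in 96-well plates, five concentrations, linear interpolation of endpoints. At the GI50, growth is halved.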 Calls of active or inactive are those of the source. Cut-off read from the data, not from the text of the source: active = GI50 up to about 1.1 µM and inactive = higher.

What was measured:
Assay in all cases: NCI-60 cell line screen, 48 h
RPMI-8226 = test system: RPMI-8226
NCI-H460 = test system: NCI-H460
HOP-62 = test system: HOP-62
SW-620 = test system: SW-620
NCI-H23 = test system: NCI-H23
K562 = test system: K562
MDA-N = test system: MDA-N
M14 = test system: M14
SK-OV-3 = test system: SK-OV-3
SK-MEL-5 = test system: SK-MEL-5
NCI-H522 = test system: NCI-H522
CCRF-CEM = test system: CCRF-CEM
HCT-15 = test system: HCT-15
NCI/ADR-RES = test system: NCI/ADR-RES
SF-539 = test system: SF-539
SF-295 = test system: SF-295
OVCAR-5 = test system: OVCAR-5
HT-29 = test system: HT-29
HOP-92 = test system: HOP-92
RXF 393 = test system: RXF 393

Measured: GI50

COc1cc(NCC2COc3c(ccc(OC)c3OC)C2=O)c([N+](=O)[O-])cc1OC (stereo unspecified)
> 100 µM: HCT-15
inactive: RPMI-8226 12.3 µM | NCI-H460 35.2 µM | HOP-62 > 100 µM | SW-620 > 100 µM | NCI-H23 > 100 µM | K562 31 µM | MDA-N > 100 µM | M14 > 100 µM | SK-OV-3 > 100 µM | SK-MEL-5 44.3 µM | NCI-H522 55.7 µM | CCRF-CEM 53.2 µM | NCI/ADR-RES > 100 µM | SF-539 > 100 µM | SF-295 66.1 µM | OVCAR-5 > 100 µM | HT-29 > 100 µM

S=P(N1CCCC1)(N1CC1)N1CC1
> 100 µM: HCT-15
inactive: RPMI-8226 > 100 µM | NCI-H460 32.4 µM | HOP-62 > 100 µM | SW-620 > 100 µM | NCI-H23 > 100 µM | K562 > 100 µM | M14 > 100 µM | HOP-92 > 10 µM | SK-OV-3 > 100 µM | RXF 393 > 100 µM | SK-MEL-5 > 100 µM | NCI-H522 83.9 µM | CCRF-CEM 73.1 µM | SF-539 > 100 µM | SF-295 > 100 µM | OVCAR-5 > 100 µM | HT-29 > 100 µM

O=C1CC2C(=O)c3ccccc3CC2c2ccccc21 (stereo unspecified)
24.3 µM: HCT-15
inactive: RPMI-8226 15.2 µM | NCI-H460 33 µM | HOP-62 > 100 µM | SW-620 49 µM | K562 21.3 µM | MDA-N 36.3 µM | M14 69.5 µM | HOP-92 16.4 µM | SK-OV-3 > 100 µM | NCI-H522 57.4 µM | SF-539 32.7 µM | SF-295 49.2 µM | OVCAR-5 > 100 µM | HT-29 44.9 µM

O=C1C[C@H]2CC3(CC[C@H]2CN1)OCCO3
inactive: RPMI-8226 > 100 µM | NCI-H460 > 100 µM | HOP-62 > 100 µM | SW-620 > 100 µM | NCI-H23 > 100 µM | K562 > 100 µM | M14 > 100 µM | HOP-92 > 100 µM | SK-OV-3 > 100 µM | RXF 393 > 100 µM | SK-MEL-5 > 100 µM | NCI-H522 > 100 µM | CCRF-CEM > 100 µM | SF-539 > 100 µM | SF-295 > 100 µM | HT-29 > 100 µM
> 100 µM: HCT-15

CCC(C)(O)c1cnc(CC(C)C)c(=O)n1O (stereo unspecified)
38 µM: HCT-15
active: OVCAR-5 0.597 µM
inactive: RPMI-8226 11.5 µM | NCI-H460 28.1 µM | HOP-62 42.9 µM | SW-620 37.1 µM | NCI-H23 78.2 µM | K562 18.5 µM | MDA-N 73.5 µM | HOP-92 85.9 µM | SK-OV-3 87.5 µM | RXF 393 > 100 µM | SK-MEL-5 88.1 µM | CCRF-CEM 29.2 µM | SF-295 36.6 µM | HT-29 38.5 µM

NC1CC=C(COC(=O)C(O)(c2ccccc2)C2CC2)CC1 (stereo unspecified)
inactive: RPMI-8226 > 100 µM | HOP-62 > 100 µM | SW-620 > 100 µM | NCI-H23 > 100 µM | MDA-N > 100 µM | M14 > 100 µM | SK-OV-3 > 100 µM | RXF 393 > 100 µM | SK-MEL-5 > 100 µM | NCI-H522 > 100 µM | NCI/ADR-RES > 100 µM | SF-539 > 100 µM | SF-295 > 100 µM | OVCAR-5 > 100 µM | HT-29 > 100 µM
> 100 µM: HCT-15

O=C(O)CC(C(=O)O)C1c2ccccc2-c2ccccc21 (stereo unspecified)
inactive: RPMI-8226 41.1 µM | NCI-H460 33.6 µM | HOP-62 38.2 µM | SW-620 > 100 µM | NCI-H23 92.3 µM | K562 > 100 µM | MDA-N > 100 µM | M14 > 100 µM | SK-OV-3 66.8 µM | RXF 393 > 100 µM | SK-MEL-5 > 100 µM | NCI-H522 47.9 µM | CCRF-CEM 32.4 µM | NCI/ADR-RES > 100 µM | SF-295 45.1 µM | HT-29 > 100 µM
> 100 µM: HCT-15

COCCN1C(=O)C2c3[nH]c4ccccc4c3C3CCC(C(C)(C)C)CC3C2C1=O (stereo unspecified)
16.9 µM: HCT-15
inactive: RPMI-8226 15.2 µM | NCI-H460 14.8 µM | HOP-62 18.6 µM | SW-620 17.3 µM | NCI-H23 22.6 µM | K562 18.9 µM | MDA-N 14.5 µM | M14 18.5 µM | SK-OV-3 20.2 µM | RXF 393 20.4 µM | SK-MEL-5 17 µM | NCI-H522 18 µM | CCRF-CEM 22.6 µM | NCI/ADR-RES 17.4 µM | SF-539 19.1 µM | SF-295 18.6 µM | HT-29 13.2 µM

CN(C)CCCNC(=O)c1cc(NC(=O)c2cc(NC(=O)CCCn3c4ccccc4c4ccccc43)cn2C)cn1C
inactive: RPMI-8226 3.08 µM | NCI-H460 10.1 µM | HOP-62 13.6 µM | SW-620 7.94 µM | NCI-H23 14.8 µM | K562 3.13 µM | M14 4.41 µM | HOP-92 14.7 µM | SK-OV-3 12 µM | RXF 393 12.6 µM | SK-MEL-5 5.81 µM | NCI-H522 14.2 µM | CCRF-CEM 7.71 µM | NCI/ADR-RES 19.6 µM | SF-539 20.4 µM | SF-295 18.5 µM | OVCAR-5 20.1 µM | HT-29 2.59 µM
28.1 µM: HCT-15

O=C(c1ccc([N+](=O)[O-])cc1[N+](=O)[O-])N(/N=C/C=C/c1ccccc1)c1nnc(-c2ccccc2)c(-c2ccccc2)n1
29 µM: HCT-15
inactive: RPMI-8226 20.5 µM | NCI-H460 34 µM | HOP-62 86.1 µM | SW-620 44.4 µM | NCI-H23 27 µM | K562 20.1 µM | M14 30.6 µM | HOP-92 20.5 µM | SK-OV-3 74.8 µM | RXF 393 22.8 µM | SK-MEL-5 30.6 µM | NCI-H522 22 µM | CCRF-CEM 24.5 µM | SF-539 15.2 µM | SF-295 30.5 µM | OVCAR-5 > 100 µM | HT-29 46 µM

N#CC(NNC(=O)c1ccccc1O)c1ccc(O)cc1 (stereo unspecified)
8.63 µM: HCT-15
inactive: RPMI-8226 10.2 µM | NCI-H460 3.79 µM | HOP-62 22.5 µM | SW-620 26.7 µM | NCI-H23 8.05 µM | K562 3.1 µM | M14 6.93 µM | HOP-92 3.48 µM | SK-OV-3 6.44 µM | RXF 393 1.48 µM | SK-MEL-5 19.4 µM | NCI-H522 12.8 µM | CCRF-CEM 4.93 µM | SF-539 3.78 µM | SF-295 4.38 µM | OVCAR-5 17.6 µM | HT-29 28.1 µM

O=C(CC(=O)n1nc(-c2ccccc2)c(/N=N/c2ccccc2Cl)c1-c1ccccc1)Nc1ccc(Cl)cc1
> 43 µM: HCT-15
inactive: RPMI-8226 > 49.3 µM | NCI-H460 > 48.1 µM | HOP-62 > 100 µM | SW-620 > 48.6 µM | NCI-H23 > 100 µM | K562 > 53.1 µM | M14 > 100 µM | HOP-92 > 100 µM | SK-OV-3 > 100 µM | RXF 393 > 100 µM | SK-MEL-5 > 100 µM | NCI-H522 > 100 µM | CCRF-CEM > 44.9 µM | SF-539 > 100 µM | SF-295 > 100 µM | OVCAR-5 > 100 µM | HT-29 > 54.6 µM

Cc1ccc(C2=C(c3ccccc3)C(Br)(c3ccccc3)C(c3ccccc3)=C2c2ccc(C)cc2)cc1
> 100 µM: HCT-15
inactive: RPMI-8226 > 100 µM | NCI-H460 > 100 µM | HOP-62 > 100 µM | SW-620 > 100 µM | NCI-H23 > 100 µM | K562 > 100 µM | M14 > 100 µM | HOP-92 > 100 µM | SK-OV-3 > 100 µM | RXF 393 > 100 µM | SK-MEL-5 > 100 µM | NCI-H522 > 100 µM | CCRF-CEM > 100 µM | SF-539 > 100 µM | SF-295 > 100 µM | OVCAR-5 > 100 µM | HT-29 > 100 µM

CC1(C)C[C@@H]2C1CCC1(C)CC2(O)CC[C@H]1O (stereo partly specified)
inactive: RPMI-8226 > 100 µM | NCI-H460 > 100 µM | HOP-62 > 100 µM | SW-620 > 100 µM | NCI-H23 > 100 µM | K562 > 100 µM | M14 > 100 µM | HOP-92 > 100 µM | SK-OV-3 > 100 µM | SK-MEL-5 > 100 µM | NCI-H522 > 100 µM | CCRF-CEM > 100 µM | NCI/ADR-RES > 100 µM | SF-295 > 100 µM | OVCAR-5 > 100 µM | HT-29 > 100 µM
> 100 µM: HCT-15

Oc1ccc(-c2nc3ccc(F)cc3s2)cc1
inactive: RPMI-8226 35.7 µM | NCI-H460 24.1 µM | SW-620 29.9 µM | NCI-H23 19.7 µM | K562 29.4 µM | MDA-N 23.5 µM | M14 20.4 µM | SK-OV-3 18.2 µM | RXF 393 25.3 µM | SK-MEL-5 18 µM | NCI-H522 13.2 µM | NCI/ADR-RES 21.1 µM | SF-539 17.8 µM | SF-295 19.1 µM | OVCAR-5 21.7 µM | HT-29 15 µM
18 µM: HCT-15

CN(CO)c1nc(N(C)CO)nc(N(C)CO)n1 [TRIMELAMOL]
9.89 µM: HCT-15
inactive: RPMI-8226 3.98 µM | HOP-62 20 µM | SW-620 3.51 µM | NCI-H23 19.3 µM | K562 18.7 µM | MDA-N 20.6 µM | M14 21.8 µM | SK-OV-3 21.9 µM | RXF 393 11.6 µM | SK-MEL-5 6.95 µM | NCI-H522 20.9 µM | CCRF-CEM 5.78 µM | SF-295 26.8 µM | OVCAR-5 26.4 µM | HT-29 23 µM
